Data on 6 compounds can be found in patent US20260232713A1, “PLECOMACROLIDE DERIVATIVES FOR MHC-I NEF DOWNMODULATION” (priority 2022, published 2026).

Series [1] has as its target T1, HIV-Nef (Human immunodeficiency virus type 1, UniProt P03406).
T1 sequence (P03406 2-206): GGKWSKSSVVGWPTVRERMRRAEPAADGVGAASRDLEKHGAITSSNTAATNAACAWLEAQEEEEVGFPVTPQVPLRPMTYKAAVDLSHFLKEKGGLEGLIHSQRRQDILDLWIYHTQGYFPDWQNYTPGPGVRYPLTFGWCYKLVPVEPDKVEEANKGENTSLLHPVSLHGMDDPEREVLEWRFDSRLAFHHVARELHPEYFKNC
Nature of the series: Inhibition of HIV-Nef downmodulation of MHC-I HLA-A2 on the surface of HIV ΔGPE infected primary CD4+ T cells (flow cytometry). The series is classed as cell-based.

Series [2] has as its target T2, V-ATPase (Homo sapiens, UniProt P27449).
T2 construct: endogenous in cells; host or cells: primary CD4+ T cells (HIV ΔGPE infected) from donor PBMCs
Nature of the series: Lysosomal acidification (Lysotracker mean fluorescence intensity) as indicator of V-ATPase activity in primary CD4+ T cells. In kind it is cell-based. How it is done:
(§1) Inhibition of HIV-Nef was measured by assessing its capacity to downmodulate MHC-I HLA-A2 on the surface of primary CD4+ T cells 24-hours after treatment with each compound. V-ATPase inhibition was assessed at the same time point using lysosomal acidification as an indicator of V-ATPase activity. This was measured using a flow cytometric assay that quantified Lysotracker mean fluorescence intensity as previously described (Painter et al., 2020). Cell viability was measured at 24-hour and 72-hour time points using a previously described flow cytometric assay (Painter et al., 2020).
(§2) Anonymized leukocytes isolated by apheresis were obtained from New York Blood Center and peripheral blood mononuclear cells (PBMCs) were isolated by Ficoll-Paque Plus (17144002; GE Healthcare) centrifugation using SepMate tubes (85450; StemCell Technologies) according to the manufacturers protocol. […] Then, 20-24 hours post-PHA activation, 15 mL of R10/PHA medium is removed and replaced with 5 mL of R10+100u/mL Recombinant Human IL-2 (202|L010; R&D Systems). 48 hours after IL-2 stimulation, primary CD4^+ T cells were infected via spinoculation with previously described HIV ΔGPE construct.
(§3) 48 hours after spinoculation, cells were pooled and plated in flat bottom 96-well plate. […] Compounds were thawed at room temperature and diluted in R10 medium to 2× starting concentration.
(§4) All ΔGPE infected cells were collected 24 hours after treatment.
(§5) All statistical analyses were performed using GraphPad Prism software. Curves were generated using GraphPad Prism software using [Inhibitor] vs. response with variable slope (four parameters).

For a further series, the system named is primary CD4+ T cells. Nature of the series: in vitro. The conditions noted are these: for CC50: read-out: Viability (TC50), mock primary CD4+ T cells, 72 hours after treatment. As to the method: as §1, §2, §3, §4
(§6) All Mock cells were collected 72 hours after treatment.
as §5

A further series is described as follows: in vitro. The following applies: human. How it is done:
as §1, §2, §3, §4, §6, §5

Series [3] has as its target T1, HIV-Nef. The following applies: literature report; cited from earlier work.
Series [4] concerns V-ATPase. The conditions noted are these: literature report; cited from earlier work.
The mark [5] stands for this setting: HLA-A2 surface expression, ΔGPE infected primary CD4+ T cells, 24 hours after treatment.
The mark [6] stands for this setting: Lysotracker Red, ΔGPE infected primary CD4+ T cells, 24 hours after treatment, read-out: Lysotracker (V-ATPase IC50, lysosomal neutralization).

Read-outs that look alike come from different tables or passages of the source.

Broadly, the IC50 is the concentration that inhibits the measured activity by half.

T2 sequence (P27449 whole entry, looked up): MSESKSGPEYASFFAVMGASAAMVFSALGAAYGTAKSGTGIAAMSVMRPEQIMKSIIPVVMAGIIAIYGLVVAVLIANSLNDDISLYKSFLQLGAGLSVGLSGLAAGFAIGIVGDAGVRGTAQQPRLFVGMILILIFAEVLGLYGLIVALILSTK

On to 21-Deoxy CMF [Compound S24], for which the IC50 against HIV-Nef [1] (setting [5]) worked out at 4.5 nM; on V-ATPase [2] (setting [6]) it was 32 nM. Moreover, in the series on primary CD4+ T cells (ratio TC50 to Nef IC50), the “Viability:Nef (therapeutic window separating Nef IC50 and TC50)” value is 2.2 fold. The CC50 in the series with primary CD4+ T cells was determined as 9.4 nM.

As to `CO/C1=C\C(C)=C\[C@@H](C)C(=O)[C@@H](C)C/C(C)=C/C=C/[C@H](OC)[C@@H]([C@@H](C)[C@@H](O)[C@H](C)[C@@]2(O)CC(=O)[C@H](C)[C@@H](C(C)C)O2)OC1=O` [Compound S18], on HIV-Nef [1] (setting [5]), the “Nef (Nef IC50)” value was “above the activity threshold”. On V-ATPase [2], the IC50 is over 1000 nM. On V-ATPase [2] (Lysotracker Red, ΔGPE infected primary CD4+ T cells, 24 hours after treatment), the “Lysotracker (V-ATPase IC50, lysosomal neutralization)” value is “above the activity threshold”. The compound also gave a CC50 in “in vitro” of over 1000 nM.

As to `C/C=C/[C@H]1O[C@@H]([C@@H](C)[C@H](O)[C@H](C)[C@H]2OC(=O)/C(OC)=C/C(C)=C/[C@@H](C)[C@@H](O)[C@@H](CC)[C@@H](O)[C@H](C)C/C(C)=C/C=C/[C@@H]2O)C[C@@H](O)[C@@H]1C` [Compound S25, 21-Deoxy-16-Hydroxy CMF], the IC50 is 400 nM against HIV-Nef [1] (setting [5]) and over 1000 nM at V-ATPase [2] (setting [6]). For the same compound, the “Fold reduction of activity compared to 6” value on HIV-Nef [1] (comparator CMF (6)) is listed as “over 200 fold”. The CC50 in the series on primary CD4+ T cells was over 1000 nM.

For `CC[C@H]1OC(=O)[C@H](C)[C@@H](O)[C@H](C)[C@@H](O)[C@@H](C)C[C@@H](C)C(=O)[C@H](C)[C@@H](O)[C@H]1C` [Compound S31, 6-deoxyerythronolide B, reference compound], the IC50 on HIV-Nef [1] (setting [5]) and at V-ATPase [2] (setting [6]) was over 1000 nM in each case. In the series with primary CD4+ T cells, the CC50 is over 1000 nM.

In the case of “Elaiophylin [Compound S16, reference compound]”, the IC50 against HIV-Nef [1] (setting [5]) stood at 250 nM. The “Fold decrease in Nef potency compared to 2” value on HIV-Nef [1] ([…]) is 20 fold. For the same compound, in the series with primary CD4+ T cells, the CC50 came to 160 nM.

With bafilomycin D, the “Potency as a Nef inhibitor (previously reported)” value at HIV-Nef [3] is listed as “very poor potency”. In addition, in the series with V-ATPase [4], the “V-ATPase inhibition (previously reported)” value is reported as “low level V-ATPase inhibition”.
